The subject of experiment [1] is SU-DHL-4 and SU-DHL-10 cell lines. The experiment is described as follows: RNA-seq differential gene expression in DLBCL cell lines. Type of experiment: cell-based, human. The method, then:
Evaluation of the pharmacodynamic extent and duration of CDK9 inhibition were performed in vitro using the human DLBCL cell lines SU-DHL-4 and SU-DHL-10, harboring MYC amplification and MYC overexpression with P57T mutation, respectively. Cells were seeded 18 hours prior to treatment for 4 hours with one of three CDK9 inhibitors, enitociclib (0.25 and1 µmol/L), atuveciclib (1 µmol/L) or KB-0742 (1 µmol/L), cells were washed, and incubation continued until 48 hours posttreatment. Samples were collected before treatment (−4), immediately after treatment (0), and at 1, 2, 4, 8, 12, 16, 24, and 48 hours after washout for RNA sequencing (RNA-seq), qPCR, and Western blotting analyses. Total RNA was extracted from blood of patients and cell lines using RNeasy Plus Mini Kit (QIAGEN, #74136) and cDNA prepared with the Maxima First Strand cDNA Synthesis Kit for RT-PCR (Thermo Fisher Scientific, K1642) according to manufacturer's instructions. The integrity of purified total RNA was evaluated using an Agilent 2100 Bioanalyzer system and RNA 6000 Nano Kit (Agilent, #5067-1511). Differential gene expression analysis was performed (Fios Genomics) from RNA-seq data (Discovery Life Sciences). MYC and MCL1 mRNA levels were measured by qPCR in vitro and in vivo, using a Taqman qPCR system (Thermo Fisher Scientific), TaqMan Fast Universal PCR Master Mix (2X) no AmpErase (#4352042) and TaqMan probes for MYC (Hs00153408_m1) and MCL1 (Hs03043899_m1). RNA-seq data were analyzed using DESeq2 ([35]). RNA-seq data generated from the analysis of two cell lines treated with the three CDK9 inhibitors was analyzed to investigate the differences in gene expression levels between various posttreatment timepoints and the pretreatment samples. Quality control assessment and exploratory data analysis by principal component analysis (PCA) were done on raw counts and on normalized count data. Normalization of RNA-seq count data was done using trimmed mean of M-values normalization and transformed with voom, resulting in log2 counts per million with associated precision weights. […] Significance values (Padj) were adjusted for multiple testing, by controlling the FDR using the Benjamini–Hochberg procedure. […] RNA-seq data generated from blood samples taken from patients before and after their first dose (C1D1) or after multiple doses, before and after their third dose (C1D15) were analyzed and normalized using the same pipeline as cell lines for comparisons.

For a further experiment, the system named is MCL1 mRNA in whole blood. The experiment can be described thus: MCL1 mRNA in whole blood of patients (RNA-seq, PK/PD modeling). As to conditions: for Downregulation of MCL1 mRNA: C1D15. Type of experiment: in vivo, human. As for the experimental part: Total RNA was extracted from blood of patients and cell lines using RNeasy Plus Mini Kit (QIAGEN, #74136) and cDNA prepared with the Maxima First Strand cDNA Synthesis Kit for RT-PCR (Thermo Fisher Scientific, K1642) according to manufacturer's instructions. The integrity of purified total RNA was evaluated using an Agilent 2100 Bioanalyzer system and RNA 6000 Nano Kit (Agilent, #5067-1511). Differential gene expression analysis was performed (Fios Genomics) from RNA-seq data (Discovery Life Sciences). MYC and MCL1 mRNA levels were measured by qPCR in vitro and in vivo, using a Taqman qPCR system (Thermo Fisher Scientific), TaqMan Fast Universal PCR Master Mix (2X) no AmpErase (#4352042) and TaqMan probes for MYC (Hs00153408_m1) and MCL1 (Hs03043899_m1). RNA-seq data were analyzed using DESeq2 ([35]).
Fifteen patients with refractory or relapsed DH-DLBCL or other MYC+ NHL were treated with enitociclib (30 mg, 21-day cycle, once weekly x3) as a 30-minute intravenous infusion on study days 1, 8, and 15 (NCT02635672). Longitudinal gene expression levels were analyzed by RNA-seq, and enitociclib plasma concentrations were measured using LC/MS-MS. The clinical study protocol was approved by the Institutional Review Board of participating institutions and complied with the Declaration of Helsinki, current Good Clinical Practice guidelines, and local laws and regulations. Written informed consent was provided by all participants prior to the initiation of any study-specific procedure.
All pharmacokinetic parameters were calculated by noncompartmental methods as described previously ([36]) using WinNonlin v5.3 (Certara LP). Pharmacokinetic/pharmacodynamic modeling was performed using SAAM II v2.3.2 (The Epsilon Group). Pooled pharmacokinetic data from all patients [n = 15 for single dose, cycle 1 day 1 (C1D1) and n = 11 for multiple doses, cycle 1 day 15 (C1D15)] were characterized using a one-compartment model with intravenous dosing. Subsequently, the pharmacokinetic/pharmacodynamic relationship of enitociclib plasma concentrations to MCL1 and MYC mRNA change was characterized using an indirect response model ([37]) on pooled biomarker data where enitociclib concentrations inhibit the formation of MCL1 or MYC mRNA as described by the following equation: […]
PD is defined as MCL1 or MYC mRNA expression level as a percentage from baseline, t (h) is the time, kin (1/h) is the formation rate of MCL1 or MYC, IC50 (µg/L) is the enitociclib concentration where there is 50% inhibition of PD, kout (h^−1) is the rate constant describing the loss of PD, and n is the hill coefficient. At homeostasis, kin = kout (PD); therefore, kout was replaced by kin/(PD)initial where (PD)initial is equal to 100%. Estimates of pharmacokinetic and pharmacodynamic parameters from pharmacokinetic/pharmacodynamic modeling of pooled data are presented as the estimate followed by CV in parentheses.
RNA-seq data generated from the analysis of two cell lines treated with the three CDK9 inhibitors was analyzed to investigate the differences in gene expression levels between various posttreatment timepoints and the pretreatment samples. Quality control assessment and exploratory data analysis by principal component analysis (PCA) were done on raw counts and on normalized count data. Normalization of RNA-seq count data was done using trimmed mean of M-values normalization and transformed with voom, resulting in log2 counts per million with associated precision weights. […] Significance values (Padj) were adjusted for multiple testing, by controlling the FDR using the Benjamini–Hochberg procedure. […] RNA-seq data generated from blood samples taken from patients before and after their first dose (C1D1) or after multiple doses, before and after their third dose (C1D15) were analyzed and normalized using the same pipeline as cell lines for comparisons.

Molecules are shown by their SMILES.

As for `COc1cc(F)ccc1-c1cc(Nc2cc(CS(C)(=N)=O)ccn2)ncc1F` (stereo not drawn) [enitociclib], in experiment [1] (250 nmol/L, 4 hours, Padj 1.14 e-12), the PHF23 fold change is reported as −12.236. Besides, the TP53RK fold change in experiment [1] (250 nmol/L, 4 hours, Padj 7.76 e-8) is on record as −9.992. Moreover, in experiment [1] (1 µmol/L, 4 hours), the “BTG1 and PIM3 by RNA-seq (in words)” value is reported as “statistically significant downregulation”; the “PHF23 and TP53RK by RNA-seq (in words)” value is recorded as “statistically significantly downregulated”. In experiment [1] (4 hours treatment, in vitro), the “MCL1 mRNA by RNA-seq (in words)” value was “downregulation is observed but not statistically significant”, the “MYC mRNA by RNA-seq (in words)” value is “statistically significantly downregulated” and the “ZPF36 by RNA-seq (in words)” value is on record as “significantly downmodulated”. The “MYC extent of downregulation, fold change” value in experiment [1] (MYC+ DLBCL cell lines, clinically relevant conditions) was −17.108 fold change. The “maximal downregulation of MCL1 mRNA level in blood of patients postdose” value in the experiment on MCL1 mRNA in whole blood (30 mg dose) was found to be 55.5%. Also, in the experiment with MCL1 mRNA in whole blood (C1D1, 30 mg, other MYC+ NHL, range 22.5%–48.2%), the “maximal extent of MCL1 mRNA downregulation” value was determined as 44.54%. In the experiment with MCL1 mRNA in whole blood (C1D1, 30 mg, patient with the transformed follicular lymphoma), the “time of maximal MCL1 mRNA inhibition” value is recorded as 8 hours postdose. Further, the “maximal extent of MCL1 mRNA downregulation” value in the experiment on MCL1 mRNA in whole blood (C1D1, 30 mg, patients with DH-DLBCL, range 31%–52.4%) was 49.28%. Further, in the experiment with MCL1 mRNA in whole blood (DH-DLBCL, range 30%–55.5%), the “Downregulation of MCL1 mRNA” value was 45.81%. Moreover, the “Downregulation of MCL1 mRNA” value in the experiment with MCL1 mRNA in whole blood (other MYC+ NHL, range 0%–43.1%) was 18.27%. Further, in the experiment with MCL1 mRNA in whole blood (Homo sapiens, PK/PD indirect response model, pooled patient blood data, read-out: model estimated unbound IC50 for MCL1 mRNA), the IC50 was 61.2 to 69.1 nM.

The values above are taken from PMC10634346 (Cancer Research Communications, 2023).
